Assay results from patent US6737383B1, “Herbicidal oxadiazolidines” (priority 1999, dated 2004).

What was measured:
[1] = test system: duck salad; assay: Test B flood test duck salad; format: in vivo, Heteranthera limosa
Method in brief: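 Flood test on plants grown to the 2-leaf stage; treated plants kept in greenhouse twelve to sixteen days, then visually rated against controls on a 0 (no effect) to 10 (complete control) scale.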

[2] = test system: green foxtail; assay: Test E green foxtail; format: in vivo, Setaria viridis; conditions: Preemergence
[3] = test system: winter barley; assay: Test E winter barley; format: in vivo, Hordeum vulgare; conditions: Preemergence
[4] = test system: sugar beet; assay: Test B pre/postemergence sugar beet; format: in vivo, Beta vulgaris
Method in brief: (§1)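 Response is a visual 0-to-10 score relative to untreated plants, where 0 means no effect and 10 means complete control, taken twelve to sixteen days after application. Treatments went onto soil at planting and onto foliage of 1- to 4-leaf plants, using a surfactant-containing non-phytotoxic solvent.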

[5] = test system: winter wheat; assay: Test E winter wheat; format: in vivo, Triticum aestivum; conditions: Postemergence
Method in brief: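 Postemergence: 60:40 sandy loam/greenhouse potting mix, 1- to 4-leaf stage. Formulation: solvent plus surfactant. Assessment: visual comparison with untreated controls at ~21–28 days.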

[6] = test system: Italian ryegrass; assay: Test E Italian ryegrass; format: in vivo, Lolium multiflorum; conditions: Preemergence
[7] = test system: winter wheat; assay: Test E winter wheat; format: in vivo, Triticum aestivum; conditions: Preemergence
[8] = test system: rape; assay: Test B pre/postemergence rape; format: in vivo, Brassica napus
Method in brief: as §1

[9] = test system: purple nutsedge; assay: Test B pre/postemergence purple nutsedge; format: in vivo, Cyperus rotundus
Method in brief: as §1

[10] = test system: blackgrass; assay: Test E blackgrass; format: in vivo, Alopecurus myosuroides; conditions: Preemergence
[11] = test system: wild oat; assay: Test E wild oat; format: in vivo, Avena fatua; conditions: Preemergence, 0 to 100 scale where 0 is no effect and 100 is complete control
[12] = Postemergence, Rate 62 g/ha, scale 0 to 10, 0 is no effect, 10 is complete control
[13] = Rate 500 g/ha, 0 to 100 scale where 0 is no effect and 100 is complete control
[14] = Rate 1000 g/ha, 0 to 100 scale where 0 is no effect and 100 is complete control
[15] = Postemergence, Rate 250 g/ha, scale 0 to 10, 0 no effect, 10 complete control
[16] = Preemergence, Rate 62 g/ha, scale 0 to 10 (0 no effect, 10 complete control)
[17] = Preemergence, Rate 125 g/ha, scale 0 to 10 (0 no effect, 10 complete control)
[18] = Preemergence, Rate 250 g/ha, scale of 0 to 10 where 0 is no effect and 10 is complete control
[19] = Preemergence, Rate 500 g/ha, scale 0 (no effect) to 10 (complete control)
[20] = Rate 125 g/ha, Postemergence, scale 0 to 10, 0 no effect, 10 complete control
[21] = Rate 500 g/ha, Postemergence, scale 0 to 10, 0 no effect, 10 complete control

`Cc1ccccc1-n1c(=O)on(C(=O)N(c2cc(F)cc(F)c2)C(C)C)c1=O` [Compound 67] was tested. Which “Ducksalad plant response rating” value [1, 12] did it give?
Its value is 0.

And the “Ducksalad plant response rating” value ([1]; Rate 125 g/ha, Postemergence section (flood test species), scale 0 to 10, 0 no effect, 10 complete control)?
Its value is 0.

What about the “Ducksalad plant response rating” value ([1]; Rate 500 g/ha, listed under Postemergence (flood test species), scale 0 to 10, 0 no effect, 10 complete control) of the same compound?
The value was 0.

What about the “Ducksalad plant response rating” value ([1]; flood test, listed under Postemergence, Rate 250 g/ha, scale 0 to 10, 0 no effect, 10 complete control) of the same compound?
The value was 0.

What about the “Plant response rating, Green foxtail” value ([2]; Rate 250 g/ha, 0 to 100 scale) of the same compound?
Its value is 30.

And the “Plant response rating, Green foxtail” value [2, 13]?
The value was 55.

And the “Plant response rating, Green foxtail” value [2, 14]?
The value was 60.

And the “Plant response rating, Barley (winter)” value ([3]; Rate 250 g/ha, 0 to 100 scale)?
The value was 20.

And the “Plant response rating, Barley (winter)” value [3, 13]?
Its value is 40.

What about the “Plant response rating, Barley (winter)” value [3, 14] of the same compound?
Its value is 40.

And the “Sugarbeets plant response rating” value [4, 12]?
The value was 0.

What about the “Sugarbeets plant response rating” value [4, 15] of the same compound?
Its value is 0.

And the “Sugarbeets plant response rating” value [4, 16]?
Its value is 0.

What about the “Plant response rating, Sugarbeets” value [4, 17] of the same compound?
The value was 0.

And the “Plant response rating, Sugarbeets” value [4, 18]?
Its value is 0.

And the “Sugarbeets plant response rating” value [4, 19]?
Its value is 3.

And the “Sugarbeets plant response rating” value [4, 20]?
The value was 0.

And the “Sugarbeets plant response rating” value [4, 21]?
Its value is 2.

And the “Plant response rating, Wheat (winter)” value ([5]; Rate 250 g/ha, 0 to 100 scale (0 no effect, 100 complete control))?
Its value is 20.

And the “Plant response rating, Wheat (winter)” value ([5]; Rate 1000 g/ha, 0 to 100 scale, 0 is no effect and 100 is complete control)?
The value was 40.

And the “Plant response rating, Wheat (winter)” value ([5]; Rate 500 g/ha, 0 to 100 scale, 0 no effect, 100 complete control)?
Its value is 30.

What about the “Plant response rating, I. Ryegrass” value ([6]; Rate 250 g/ha, 0 to 100 scale) of the same compound?
The value was 40.

And the “Plant response rating, I. Ryegrass” value [6, 13]?
Its value is 30.

What about the “Plant response rating, I. Ryegrass” value [6, 14] of the same compound?
Its value is 50.

And the “Plant response rating, Wheat (winter)” value ([7]; Rate 250 g/ha, 0 to 100 scale)?
The value was 10.

What about the “Plant response rating, Wheat (winter)” value [7, 13] of the same compound?
The value was 10.

What about the “Plant response rating, Wheat (winter)” value [7, 14] of the same compound?
Its value is 20.

What about the “Rape plant response rating” value [8, 12] of the same compound?
The value was 0.

What about the “Rape plant response rating” value [8, 15] of the same compound?
Its value is 0.

And the “Rape plant response rating” value [8, 16]?
Its value is 0.

And the “Plant response rating, Rape” value [8, 17]?
Its value is 0.

And the “Plant response rating, Rape” value [8, 18]?
Its value is 0.

What about the “Rape plant response rating” value [8, 19] of the same compound?
The value was 0.

And the “Rape plant response rating” value [8, 20]?
Its value is 0.

And the “Rape plant response rating” value [8, 21]?
Its value is 2.

And the “Nutsedge plant response rating” value [9, 12]?
Its value is 0.

What about the “Nutsedge plant response rating” value [9, 15] of the same compound?
Its value is 0.

And the “Nutsedge plant response rating” value [9, 16]?
The value was 0.

What about the “Plant response rating, Nutsedge” value [9, 17] of the same compound?
The value was 0.

What about the “Plant response rating, Nutsedge” value [9, 18] of the same compound?
Its value is 0.

What about the “Nutsedge plant response rating” value [9, 19] of the same compound?
Its value is 0.

And the “Nutsedge plant response rating” value [9, 20]?
Its value is 0.

And the “Nutsedge plant response rating” value [9, 21]?
Its value is 0.

And the “Plant response rating, Blackgrass” value ([10]; Rate 250 g/ha, 0 to 100 scale)?
The value was 10.

And the “Plant response rating, Blackgrass” value [10, 13]?
The value was 20.

And the “Plant response rating, Blackgrass” value [10, 14]?
Its value is 40.

What about the “Plant response rating, Wild oat” value ([11]; Rate 500 g/ha) of the same compound?
The value was 40.

What about the “Plant response rating, Wild oat” value ([11]; Rate 1000 g/ha) of the same compound?
Its value is 50.
